Assay results: patent US7544668B2, “Saponins derived from Ilex pubescens and method of purifying the same” (priority 2006, dated 2009)

Key:
[1] = system: histamine-induced paw edema; assay: histamine induced paw edema in rats; assay type: in vivo, SD rats; details: 10 mg/kg oral
Method: Animal Material. Male and female ICR mice weighing 18-24 g and male SD rats weighing 150-210 g were purchased from the Laboratory Animal Services Center, the Chinese University of Hong Kong, Hong Kong. The animals were acclimated for more than 1 week under 12 hours light and 12 hours dark cycle at room temperature of 22±1° C. Chow diet and water were provided ad libitum. Animal care and treatment procedures conformed to the Institutional Guidelines and Animal Ordinance (Department of Health, Hong Kong Special Administrative Region.) Mice and rats were fasted for 16 hours and 48 hours, respectively, before experiment. Mode of Administration. The PSF solutions for anti-inflammatory and analgesic experiments were prepared by dissolving the product in 30% propanediol solution (for i.p. injection) and 0.5% (w/v) carboxymethylcellulose sodium salt (CMC—Na) (for orally administration), respectively. The reference drug indomethacin for anti-inflammatory test was dissolved in a vehicle that consisted of 10% peanut oil, 10% Tween-80 and 80% distilled water. Rotundine was suspended in 0.5% (w/v) CMC—Na salt and used as reference drug for anti-nociceptive experiment. The volumes (ml) of both hind paws were measured using a plethysmometer (Plethysmometer 7150, UGO Basile, Italy) at 1 hour before the induction and 1, 2, 3, 4, 6, and 8 hours after the induction. The increased volumes (paw edema) of the right hind paws of rats were calculated by the following equation: the increased rate (%)=(B−A)/A×100, where A and B represent the paw volumes before and at different time points after the induction, respectively. The acute inflammation in the hind paws was induced by the subcutaneous injection of 0.05 ml 1% prepared solutions of histamine into right hind paws of rats. The left hind paws were used as controls. Administration of PSF (12.5 mg/kg, 25 mg/kg, 50 mg/kg, 100 mg/kg body weight, i.p. injection), or of the vehicle (30% propanediol) was performed at 10 minutes prior to carrageenan injection. Indomethacin was orally administrated at 1 hour before the induction. The volumes of the injected and control paws were measured at different time points designed from 0.5 to 4 hours after injection of histamine. The increased rates in paw volume were calculated in the same way as in carrageenan.

[2] = system: carrageenan-induced paw edema; assay: carrageenan induced paw edema in rats; assay type: in vivo, SD rats; details: 10 mg/kg oral
Method: Animal Material. Male and female ICR mice weighing 18-24 g and male SD rats weighing 150-210 g were purchased from the Laboratory Animal Services Center, the Chinese University of Hong Kong, Hong Kong. The animals were acclimated for more than 1 week under 12 hours light and 12 hours dark cycle at room temperature of 22±1° C. Chow diet and water were provided ad libitum. Animal care and treatment procedures conformed to the Institutional Guidelines and Animal Ordinance (Department of Health, Hong Kong Special Administrative Region.) Mice and rats were fasted for 16 hours and 48 hours, respectively, before experiment. Mode of Administration. The PSF solutions for anti-inflammatory and analgesic experiments were prepared by dissolving the product in 30% propanediol solution (for i.p. injection) and 0.5% (w/v) carboxymethylcellulose sodium salt (CMC—Na) (for orally administration), respectively. The reference drug indomethacin for anti-inflammatory test was dissolved in a vehicle that consisted of 10% peanut oil, 10% Tween-80 and 80% distilled water. Rotundine was suspended in 0.5% (w/v) CMC—Na salt and used as reference drug for anti-nociceptive experiment. The experiment was conducted as previously described by Winter^1. At the induction, each rat was injected with 0.1 ml freshly prepared carrageenan (1% w/v) in physiological saline (0.9% w/v NaCl) into subplantar tissues of the right hind paw. The left hind paws without injection were used as controls. PSF was i.p. administrated 10 minutes prior to carrageenan injection. Control animals received an appropriate volume of 30% propanediol. Indomethacin was orally administrated 1 hr before the carrageenan injection as a reference drug. The volumes (ml) of both hind paws were measured using a plethysmometer (Plethysmometer 7150, UGO Basile, Italy) at 1 hour before the induction and 1, 2, 3, 4, 6, and 8 hours after the induction. The increased volumes (paw edema) of the right hind paws of rats were calculated by the following equation: the increased rate (%)=(B−A)/A×100, where A and B represent the paw volumes before and at different time points after the induction, respectively.

[3] = system: radiant heat stimulation-induced tail flick reaction; assay: tail flick test, radiant heat stimulation in mice; assay type: in vivo, ICR mice; details: for Tail flick reaction time: 50 mg/kg oral
Method: Animal Material. Male and female ICR mice weighing 18-24 g and male SD rats weighing 150-210 g were purchased from the Laboratory Animal Services Center, the Chinese University of Hong Kong, Hong Kong. The animals were acclimated for more than 1 week under 12 hours light and 12 hours dark cycle at room temperature of 22±1° C. Chow diet and water were provided ad libitum. Animal care and treatment procedures conformed to the Institutional Guidelines and Animal Ordinance (Department of Health, Hong Kong Special Administrative Region.) Mice and rats were fasted for 16 hours and 48 hours, respectively, before experiment.
Mode of Administration. The PSF solutions for anti-inflammatory and analgesic experiments were prepared by dissolving the product in 30% propanediol solution (for i.p. injection) and 0.5% (w/v) carboxymethylcellulose sodium salt (CMC—Na) (for orally administration), respectively. The reference drug indomethacin for anti-inflammatory test was dissolved in a vehicle that consisted of 10% peanut oil, 10% Tween-80 and 80% distilled water. Rotundine was suspended in 0.5% (w/v) CMC—Na salt and used as reference drug for anti-nociceptive experiment.
The anti-nociceptive effects of PSF and the reference drug, expressed as the time required for mice tail flick after exposure to a source of radiant heat, were evaluated according to the description of d'Amour^3. […] The tail-flick response was elicited by applying radiant heat to the point ⅓ of length away from the tip of the tail. The apparatus was arranged so that when the operator turned on the lamp a timer was activated. When the mice felt pain and flicked its tail, light fell on the photocell such that the timer was automatically stopped. The intensity of the heat stimulus in the tail-flick test was adjusted so that the animal flicked its tail within 3 to 6 seconds. A 12 seconds cut-off time was set in order to prevent tail tissues from damage. Before the experiment, the heat stimulation latency of all animals was tested, and those with response time to heat stimulation from […] were excluded. The tail-flick response was measured at 0.5, 1, and 2 hours after oral administration of PSF (200, 100 and 50 mg/kg body weight) or rotundine (50 mg/kg, as reference drug) or vehicle.

[4] = system: acetic acid induced writhing response; assay: abdominal writhing test induced by acetic acid in mice; assay type: in vivo, ICR mice
Method: Animal Material. Male and female ICR mice weighing 18-24 g and male SD rats weighing 150-210 g were purchased from the Laboratory Animal Services Center, the Chinese University of Hong Kong, Hong Kong. The animals were acclimated for more than 1 week under 12 hours light and 12 hours dark cycle at room temperature of 22±1° C. Chow diet and water were provided ad libitum. Animal care and treatment procedures conformed to the Institutional Guidelines and Animal Ordinance (Department of Health, Hong Kong Special Administrative Region.) Mice and rats were fasted for 16 hours and 48 hours, respectively, before experiment. Mode of Administration. The PSF solutions for anti-inflammatory and analgesic experiments were prepared by dissolving the product in 30% propanediol solution (for i.p. injection) and 0.5% (w/v) carboxymethylcellulose sodium salt (CMC—Na) (for orally administration), respectively. The reference drug indomethacin for anti-inflammatory test was dissolved in a vehicle that consisted of 10% peanut oil, 10% Tween-80 and 80% distilled water. Rotundine was suspended in 0.5% (w/v) CMC—Na salt and used as reference drug for anti-nociceptive experiment. The abdominal writhing test induced by chemical stimulation of acetic acid was performed in mice as originally described by Siegmund^2. […] Rotundine was orally administrated 1 hour before acetic acid injection. After intraperitoneal injection of 0.2 ml acetic acid (0.8% w/v) in physiological saline (0.9% w/v NaCl), animals were isolated for observation. The numbers of abdominal writhing syndrome/events, which consisted of the contraction of the abdominal area with extension of hind legs, were recorded during a 15 minutes period in each animal.

[5] = oral, in comparison with vehicle-treated animals

COc1ccc2c(c1)c(CC(=O)O)c(C)n2C(=O)c1ccc(Cl)cc1 [Indomethacin]
Change in paw swelling after histamine injection (%) ([1]; 0.5 h after histamine): 29.72 ± 10.67% | Change in paw swelling after histamine injection (%) ([1]; 1 h after histamine): 14.64 ± 9.21 % | Change in paw swelling after histamine injection (%) ([1]; 2 h after histamine): 11.51 ± 6.61 % | Change in paw swelling after histamine injection (%) ([1]; 3 h after histamine): 11.35 ± 7.35% | Change in paw swelling after histamine injection (%) ([1]; 4 h after histamine): 7.43 ± 6.05 % | Change in paw swelling after histamine injection (%) ([1]; 6 h after histamine): 4.17 ± 6.05% | effect on histamine-induced edema ([1]; at a later time than PSF): significant inhibitory effect | Changes in swelling percentage after carrageenan injection (%) ([2]; 1 h after carrageenan): 8.54 ± 4.97 % | Changes in swelling percentage after carrageenan injection (%) ([2]; 2 h after carrageenan): 10.80 ± 7.77 % | Changes in swelling percentage after carrageenan injection (%) ([2]; 3 h after carrageenan): 9.49 ± 6.63 % | Changes in swelling percentage after carrageenan injection (%) ([2]; 4 h after carrageenan): 13.53 ± 10.13 % | Changes in swelling percentage after carrageenan injection (%) ([2]; 6 h after carrageenan): 17.43 ± 9.21 % | Changes in swelling percentage after carrageenan injection (%) ([2]; 8 h after carrageenan): 34.70 ± 9.21%

COc1cc2c(cc1OC)[C@@H]1Cc3ccc(OC)c(OC)c3CN1CC2 [Rotundine]
Tail flick reaction time ([3]; 0.5 h after administration): 7.552 ± 3.301 s | Tail flick reaction time ([3]; 1 h after administration): 11.044 ± 1.658 s | Tail flick reaction time ([3]; 2 h after administration): 9.813 ± 3.069 s | Tail flick reaction time ([3]; time 0): 4.223 ± 0.458 s | effect on tail flick reaction time of mice [3, 5]: prolonged the reaction time | Inhibition (%) ([4]; 50 mg/kg oral 1 hour before acetic acid): 100% | Writhing count ([4]; 50 mg/kg oral 1 hour before acetic acid, 15 minutes period): 0.00 ± 0.00 | effect on number of writhing episodes of mice [4, 5]: complete analgesia
